Among the data in ChEMBL document CHEMBL1137511, “Identification of a series of novel derivatives as potent HCV inhibitors by a ligand-based virtual screening optimized procedure” (Bioorg Med Chem, 2007) are IC50 values, retold here.

SMILES strings stand for the structures.

This test in a line: Inhibition of HCV genotype 1 polymerase. On the set-up: species or system Hepacivirus hominis.
What is called IC50 is the point on the concentration scale where inhibition reaches its midpoint. The low end stands for greater potency, the high end for weaker potency. With `O=c1c(C2=NS(=O)(=O)c3ccccc3N2)c(O)c2ccccc2n1NCC1CCCC1`, the IC50 worked out at 747 nM.

`CCCCNn1c(=O)c(C2=NS(=O)(=O)c3ccccc3N2)c(O)c2ccccc21` displayed an IC50 of 951 nM. For the compound `O=c1c(C2=NS(=O)(=O)c3ccccc3N2)c(O)c2ccccc2n1NCc1ccoc1`, the IC50 is 1550 nM. As for `O=c1c(C2=NS(=O)(=O)c3ccccc3N2)c(O)c2ccccc2n1NCc1cccs1`, the IC50 is 2330 nM.

On to `CCC(CC)Nn1c(=O)c(C2=NS(=O)(=O)c3ccccc3N2)c(O)c2ccccc21`, for which the IC50 is 2460 nM. In the case of `O=c1c(C2=NS(=O)(=O)c3ccccc3N2)c(O)c2ccccc2n1NCC1CCCCCC1`, it took 1040 nM to reach half-maximal inhibition (IC50). The compound `O=c1c(C2=NS(=O)(=O)c3ccccc3N2)c(O)c2cccnc2n1Cc1ccccc1` yielded an IC50 of 5800 nM. The compound `CC(Nn1c(=O)c(C2=NS(=O)(=O)c3ccccc3N2)c(O)c2ccccc21)c1ccccc1` (centres undefined) returned an IC50 of 16500 nM. As for `Cc1cccc(CNn2c(=O)c(C3=NS(=O)(=O)c4ccccc4N3)c(O)c3ccccc32)c1`, the IC50 worked out at 8210 nM. As for `O=c1c(C2=NS(=O)(=O)c3ccccc3N2)c(O)c2ccccc2n1NCc1ccc(Br)cc1`, the figure is 10400 nM. In turn, `O=c1c(C2=NS(=O)(=O)c3ccccc3N2)c(O)c2ccccc2n1NCc1nccs1` returned an IC50 of 35800 nM. Take `CC(C)CNn1c(=O)c(C2=NS(=O)(=O)c3ccccc3N2)c(O)c2ccccc21`: the IC50 is 941 nM. `Cc1ccsc1CNn1c(=O)c(C2=NS(=O)(=O)c3ccccc3N2)c(O)c2ccccc21`: the IC50 came out at 15000 nM. The compound `O=c1c(C2=NS(=O)(=O)c3ccccc3N2)c(O)c2ccccc2n1NCC1CCCCC1` yielded an IC50 of 2530 nM. For the compound `CC(C)(C)CCNn1c(=O)c(C2=NS(=O)(=O)c3ccccc3N2)c(O)c2ccccc21`, the IC50 was 411 nM.

On to `CCCC(Nn1c(=O)c(C2=NS(=O)(=O)c3ccccc3N2)c(O)c2ccccc21)C(C)C` (centres undefined), for which 6400 nM corresponded to half-maximal inhibition (IC50). As for `CCCC(CC)Nn1c(=O)c(C2=NS(=O)(=O)c3ccccc3N2)c(O)c2ccccc21` (centres undefined), the IC50 turned out to be 1890 nM. `CC(C)Nn1c(=O)c(C2=NS(=O)(=O)c3ccccc3N2)c(O)c2ccccc21` came in with an IC50 of 6350 nM. As for `CC(C)CCn1c(=O)c(C2=NS(=O)(=O)c3ccccc3N2)c(O)c2cccnc21`, the figure is 810 nM; as for `Cc1ccccc1CNn1c(=O)c(C2=NS(=O)(=O)c3ccccc3N2)c(O)c2ccccc21`, 6120 nM. Compound `O=c1c(C2=NS(=O)(=O)c3ccccc3N2)c(O)c2ccccc2n1NCC1CC1` gave an IC50 of 285 nM. As to `O=c1c(C2=NS(=O)(=O)c3ccccc3N2)c(O)c2ccccc2n1NC1CCCCC1`, the concentration for half-maximal inhibition (IC50) worked out at 356 nM. In turn, `CC(C)CCn1c(=O)c(C2=NS(=O)(=O)c3cc(OCC(=O)N(C)C)ccc3N2)c(O)c2cccnc21` showed an IC50 of 934 nM. The compound `COc1ccc2c(c1)S(=O)(=O)NC(c1c(O)c3cccnc3n(Cc3ccccc3)c1=O)=N2` showed an IC50 of 8310 nM. The value for `O=c1c(C2=NS(=O)(=O)c3cccc(O)c3N2)c(O)c2cccnc2n1Cc1ccccc1` was 8370 nM; that for `CC(C)CCn1c(=O)c(C2=NS(=O)(=O)c3cc(OCC(N)=O)ccc3N2)c(O)c2cccnc21` was 46 nM. For the compound `Cc1ccc2c(c1)S(=O)(=O)NC(c1c(O)c3cccnc3n(Cc3ccccc3)c1=O)=N2`, the IC50 was determined as 25700 nM. For `CC(C)CCn1c(=O)c(C2=NS(=O)(=O)c3cc(OCC(=O)O)ccc3N2)c(O)c2cccnc21`, the IC50 was determined as 367 nM. Turning to `O=c1c(C2=NS(=O)(=O)c3cccc(Br)c3N2)c(O)c2cccnc2n1Cc1ccccc1`, inhibition was half-maximal at 6200 nM (IC50).

For the compound `CCCOc1ccc2c(c1)S(=O)(=O)NC(c1c(O)c3cccnc3n(CCC(C)C)c1=O)=N2`, 1620 nM corresponded to half-maximal inhibition (IC50). In turn, `CC(C)CCn1c(=O)c(C2=NS(=O)(=O)c3cc(OCC(=O)OC(C)(C)C)ccc3N2)c(O)c2cccnc21` gave an IC50 of 5000 nM. `COc1cccc2c1NC(c1c(O)c3cccnc3n(Cc3ccccc3)c1=O)=NS2(=O)=O` yielded an IC50 of 18000 nM. `COc1cccc2c1NC(c1c(O)c3cccnc3n(CCC(C)C)c1=O)=NS2(=O)=O` showed a concentration for half-maximal inhibition (IC50) of 17600 nM.

`COc1ccc2c(c1)S(=O)(=O)N=C(c1c(O)c3cccnc3n(CCC(C)C)c1=O)N2` had an IC50 of 1130 nM.

For the compound `O=c1c(C2=NS(=O)(=O)c3ccccc3N2)c(O)c2ccccc2n1NCc1ccco1`, the IC50 came out at 3260 nM.

The compound `O=c1c(C2=NS(=O)(=O)c3ccccc3N2)c(O)c2ccccc2n1NCC1CCC1` had an IC50 of 278 nM. On to `CCCCCNn1c(=O)c(C2=NS(=O)(=O)c3ccccc3N2)c(O)c2ccccc21`, for which it took 928 nM to reach half-maximal inhibition (IC50). `O=c1c(C2=NS(=O)(=O)c3ccccc3N2)c(O)c2ccccc2n1NCc1ccccc1Br` returned an IC50 of 6720 nM. The value for `O=c1c(C2=NS(=O)(=O)c3ccccc3N2)c(O)c2ccccc2n1NCC1=CCOC=C1` was 4630 nM; that for `CC(C)CCNn1c(=O)c(C2=NS(=O)(=O)c3ccccc3N2)c(O)c2ccccc21` was 629 nM.

Regarding `CCCC(CCC)Nn1c(=O)c(C2=NS(=O)(=O)c3ccccc3N2)c(O)c2ccccc21`, the IC50 came out at 2240 nM.

Compound `O=c1c(C2=NS(=O)(=O)c3ccccc3N2)c(O)c2ccccc2n1NCc1cccc(Br)c1` yielded an IC50 of 1040 nM. `O=c1c(C2=NS(=O)(=O)c3cc(Br)ccc3N2)c(O)c2cccnc2n1Cc1ccccc1` registered an IC50 of 16800 nM. Compound `CC(C)CCn1c(=O)c(C2=NS(=O)(=O)c3cc(O)ccc3N2)c(O)c2cccnc21` displayed an IC50 of 390 nM.

`CC(C)CCn1c(=O)c(C2=NS(=O)(=O)c3cc(OCC#N)ccc3N2)c(O)c2cccnc21` showed an IC50 of 141 nM. The value for `Cc1cccc2c1N=C(c1c(O)c3cccnc3n(Cc3ccccc3)c1=O)NS2(=O)=O` was 6700 nM.

For `CNC(=O)COc1ccc2c(c1)S(=O)(=O)NC(c1c(O)c3cccnc3n(CCC(C)C)c1=O)=N2`, 180 nM corresponded to half-maximal inhibition (IC50). `CC(C)CCn1c(=O)c(C2=NS(=O)(=O)c3cc(OCCN)ccc3N2)c(O)c2cccnc21` registered an IC50 of 637000 nM. `O=c1c(C2=NS(=O)(=O)c3ccccc3N2)c(O)c2ccccc2n1NCc1ccc(Cl)s1` displayed an IC50 of 4780 nM.
